Data as given in US10351566B2, “Therapeutic compounds for pain and synthesis thereof” (priority 2015, dated 2019).
“And” between values parts separate entries of the source, which are not always exact repeats. Equal entries are not always repeated. “Also recorded” adds a separate entry of the source. Where two headings read alike, the source gives them in different places. Marks after values point to notes of the source that are not given here.

Assays:
[1] = biological target: hERG (Homo sapiens, UniProt Q12809); experiment: hERG in vitro safety pharmacology
Description: The IC50 for hERG was greater than 10 μM. A generally accepted safety margin against hERG and other important cardiac targets is ≥30 (a safety margin is calculated as: IC50/Cmax, free or EC50/Cmax, free).

[2] = tested on: Taxol-induced neuropathic pain; experiment: Taxol-induced neuropathic pain in mice, oral route; assay type: in vivo
Description: (§1) Study outline in brief: Animals were dosed daily with Taxol for a period of 8 consecutive days (Day 0 to Day 7). On study day 8, prior to drug dosing, the decrease in withdrawal force (tactile allodynia) was verified by applying the von Frey test. After assigning the animals to their treatment groups, the animals were treated daily for a period of 5 days with either vehicle or Formula 1 at different doses. Gabapentin at a dose of 150 mg/kg was dosed only on days of testing (day 8 and day 14).
The activity of Formula 1 following oral administration was assessed using the Taxol model (see Study Outline in section 7.1). […] Gabapentin dosed at 150 mg/kg was active for a period of 4 h post-dosing.

[3] = in vitro; assay type: in vitro ADME; settings: 1 μM, read-out: plasma protein bound (converted)
Description: The plasma protein binding assay for Formula 1 was conducted in mouse and human plasma at a single concentration of 1 μM using the method of equilibrium dialysis. […] The plasma protein binding of the compound is acceptable.

[4] = assay type: in vivo; settings: mice
Description: Fecal excretion of the parent compound was evaluated following oral administration of Formula 1 in mice at a dose of 50 mg/kg and intravenous administration at a dose of 5 mg/kg. Peak concentrations in feces were 150 μg/g and 33 μg/g from oral and intravenous dosing, respectively. These peak concentrations were generally achieved within 1 h post-oral dosing and within 5 min post-intravenous doing. The concentrations remained high (greater than 1 μg/g) even after 8 h post-dosing by both administration routes (FIG. 18).

[5] = in vivo; settings: mice; for half-life: read-out: terminal half-life (converted)
Description: Pharmacokinetic studies of MD-354 were performed in mice following 50 mg/kg oral and 5 mg/kg intravenous administration (FIG. 17).
The plasma concentration decreased in a multi-phasic manner to 0.76 ng/mL at 8 hours post-dose.

[6] = in vitro; assay type: in vitro ADME; settings: 1 μM; for microsomal CLint: read-out: intrinsic clearance (CLint)
Description: Metabolic stability studies in mouse, rat and human liver microsomes were performed at a compound concentration of 1 μM.

[7] = tested on: Taxol-induced neuropathic pain; experiment: Taxol-induced neuropathic pain in mice, SC administration; assay type: in vivo
Description: as §1
Response to heat stimuli was assessed using the hotplate apparatus set at 50ΥC. […] At baseline prior to Taxol dosing, the animals' response time to heat was 28.10±1.60 sec (vehicle-treated group). […] However, it is interesting to note that the beneficial activity of Formula 1 on heat hyperalgesia was more noticeable on study day 14, following repeated daily dosing of the compound, than on study day 8 following a single dose (Table 6).

[8] = oral, two additional sets of data, listed as 354

Sequence of hERG (Q12809 whole entry): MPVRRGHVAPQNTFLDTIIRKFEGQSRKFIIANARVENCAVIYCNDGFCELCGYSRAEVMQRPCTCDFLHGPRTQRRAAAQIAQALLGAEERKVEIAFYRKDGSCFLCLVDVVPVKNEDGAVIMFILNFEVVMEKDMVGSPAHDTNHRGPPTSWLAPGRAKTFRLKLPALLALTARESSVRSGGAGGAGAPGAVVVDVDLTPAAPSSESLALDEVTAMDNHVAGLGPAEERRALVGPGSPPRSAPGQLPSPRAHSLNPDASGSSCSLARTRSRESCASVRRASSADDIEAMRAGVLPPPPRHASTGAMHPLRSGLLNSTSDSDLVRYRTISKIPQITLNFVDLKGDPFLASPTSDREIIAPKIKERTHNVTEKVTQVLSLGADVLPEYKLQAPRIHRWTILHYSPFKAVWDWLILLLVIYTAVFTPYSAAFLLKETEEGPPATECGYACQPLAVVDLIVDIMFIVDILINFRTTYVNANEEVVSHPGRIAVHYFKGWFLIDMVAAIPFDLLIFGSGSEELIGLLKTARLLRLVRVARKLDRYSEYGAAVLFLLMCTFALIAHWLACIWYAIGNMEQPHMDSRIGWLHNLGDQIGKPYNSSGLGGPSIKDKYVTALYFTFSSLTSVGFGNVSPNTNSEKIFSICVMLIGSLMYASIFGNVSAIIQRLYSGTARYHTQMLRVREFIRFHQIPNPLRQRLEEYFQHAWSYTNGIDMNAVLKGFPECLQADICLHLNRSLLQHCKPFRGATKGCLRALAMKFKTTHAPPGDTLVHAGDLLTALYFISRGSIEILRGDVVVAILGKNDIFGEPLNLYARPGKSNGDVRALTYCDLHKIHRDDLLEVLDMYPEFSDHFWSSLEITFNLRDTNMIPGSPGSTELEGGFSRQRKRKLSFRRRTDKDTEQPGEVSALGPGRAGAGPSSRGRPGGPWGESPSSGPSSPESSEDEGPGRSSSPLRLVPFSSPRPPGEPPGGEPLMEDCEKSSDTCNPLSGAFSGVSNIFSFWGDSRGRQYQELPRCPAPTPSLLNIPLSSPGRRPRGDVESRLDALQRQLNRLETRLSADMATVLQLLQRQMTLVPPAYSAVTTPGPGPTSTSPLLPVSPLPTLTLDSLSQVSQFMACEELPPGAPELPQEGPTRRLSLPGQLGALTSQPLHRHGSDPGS

CC(C)(C)C(=O)O[C@@H]1[C@@H]2[C@H]3C[C@H](C[C@@H]1N3Cc1ccccn1)CN2C(=O)CC(F)(F)F (relative stereo) [Formula 1, (2S*,3S*,3aS*,6R*,7aR*)-1-(pyridin-2-ylmethyl)-4-(3,3,3-trifluoropropanoyl)octahydro-1H-2,6-methanopyrrolo[3,2-b]pyridin-3-yl pivalate]
IC50 [1]: > 10 µM
withdrawal force ([2]; Taxol mice, oral 50 mg/kg, 2 h post-single administration, study day 8): active in fully reversing the withdrawal force
withdrawal force ([2]; Taxol mice, oral 50 mg/kg, 24 h post-dosing (study day 14 pre-dosing)): significantly active
tolerance effect ([2]; Taxol mice, oral 50 mg/kg, repeated daily dosing): No tolerance effect was noted
heat hyperalgesia (hotplate test) ([2]; Taxol mice, oral 50 mg/kg, 50 mg/kg): No activity was found; also recorded: not statistically different from the vehicle-treated group
Dose of maximum activity ([2]; Taxol model, PO, mice): <50 mg/kg
Duration of activity at maximum effect ([2]; Taxol model, PO, mice): 24 H
Level of activity (% of maximum effect-baseline) ([2]; Taxol model, PO, mice): 100%
Peak of activity (T) ([2]; Taxol model, PO, mice): 2-6 H
fraction unbound ([3]; human plasma): 0.08
fraction unbound ([3]; mouse plasma): 0.16
concentration in feces after 8 h post-dosing ([4]; intravenous 5 mg/kg): greater than 1 μg/g
peak concentration in feces ([4]; intravenous 5 mg/kg): 33 µg/g
time to peak concentration in feces ([4]; intravenous 5 mg/kg): ≤ 5 min
concentration in feces after 8 h post-dosing ([4]; oral 50 mg/kg): greater than 1 μg/g
peak concentration in feces ([4]; oral 50 mg/kg): 150 µg/g
time to peak concentration in feces ([4]; oral 50 mg/kg): ≤ 60 min
plasma concentration at 8 hours post-dose ([5]; intravenous 5 mg/kg): 6.74 ng/mL
plasma concentration at 8 hours post-dose ([5]; oral 50 mg/kg): 0.76 ng/mL
time to peak plasma concentration ([5]; oral 50 mg/kg): ≤ 5 min
time to peak plasma concentration ([5]; oral, two additional sets of data): ≤ 5 min
oral bioavailability [5, 8]: 14.7%
peak plasma concentration [5, 8]: 3157 ng/mL and 3001 ng/mL
plasma concentration at 8 hours post-administration [5, 8]: 8.4 ng/mL and 11.4 ng/mL
terminal half-life [5, 8]: 75 min
half-life ([5]; mouse, in vivo, iv, 5 mg/kg, intravenous 5 mg/kg, excluding the 8 h time point): 21 min
bioavailability ([5]; mouse, in vivo, oral 50 mg/kg vs intravenous 5 mg/kg, read-out: absolute oral bioavailability): 10.5%
half-life ([5]; mouse, in vivo, po, 50 mg/kg, oral 50 mg/kg): 51 min
bioavailability ([5]; mouse, in vivo, po, oral, two additional sets of data, read-out: oral bioavailability): 14.1%
half-life ([5]; mouse, in vivo, po, oral, two additional sets of data): 71.4 min
C0 ([5]; mouse, in vivo, intravenous 5 mg/kg, read-out: initial plasma concentration (C0)): 7940 ng/mL
Vd ([5]; mouse, in vivo, intravenous 5 mg/kg, read-out: steady-state volume of distribution (Vss)): 1.08 L/kg
clearance ([5]; mouse, in vivo, intravenous 5 mg/kg, read-out: systemic plasma clearance (CLp)): 46.1 mL/min/kg
Cmax ([5]; mouse, in vivo, oral 50 mg/kg, read-out: peak plasma concentration (Cmax)): 1930 ng/mL
half-life ([6]; human liver microsomes): 8 min
microsomal CLint ([6]; human liver microsomes): 174 µL/min/mg
half-life ([6]; mouse liver microsomes): < 4 min
microsomal CLint ([6]; mouse liver microsomes): > 346 µL/min/mg
half-life ([6]; rat liver microsomes): < 4 min
microsomal CLint ([6]; rat liver microsomes): > 346 µL/min/mg
response time to heat (50° C.), Mean ([7]; SC 1 mg/kg, Day 0 Pre-Taxol): 28.8 s
response time to heat (50° C.), Mean ([7]; SC 1 mg/kg, Day 8, 1 h): 11.9 s
response time to heat (50° C.), Mean ([7]; SC 1 mg/kg, Day 8, 2 h): 22.8* sec
response time to heat (50° C.), Mean ([7]; SC 1 mg/kg, Day 8, 4 h): 18.9* sec
response time to heat (50° C.), Mean ([7]; SC 1 mg/kg, Day 8, 6 h): 18.5* sec
response time to heat (50° C.), Mean ([7]; SC 1 mg/kg, Day 8 Pre-dosing): 11.4 s
response time to heat (50° C.), Mean ([7]; SC 1 mg/kg, Day 14, 1 h): 14.9* sec
response time to heat (50° C.), Mean ([7]; SC 1 mg/kg, Day 14, 2 h): 24.6* sec
response time to heat (50° C.), Mean ([7]; SC 1 mg/kg, Day 14, 4 h): 24.2* sec
response time to heat (50° C.), Mean ([7]; SC 1 mg/kg, Day 14, 6 h): 22.0* sec
response time to heat (50° C.), Mean ([7]; SC 1 mg/kg, Day 14 Pre-dosing): 15.8* sec
response time to heat (50° C.), Mean ([7]; SC 1 mg/kg, Day 17, No dosing): 12.4 s
response time to heat (50° C.), Mean ([7]; SC 3 mg/kg, Day 0 Pre-Taxol): 28.6 s
response time to heat (50° C.), Mean ([7]; SC 3 mg/kg, Day 8, 1 h): 15.7 s
response time to heat (50° C.), Mean ([7]; SC 3 mg/kg, Day 8, 2 h): 19.4 s
response time to heat (50° C.), Mean ([7]; SC 3 mg/kg, Day 8, 4 h): 14.8 s
response time to heat (50° C.), Mean ([7]; SC 3 mg/kg, Day 8, 6 h): 14.1 s
response time to heat (50° C.), Mean ([7]; SC 3 mg/kg, Day 8 Pre-dosing): 12.2 s
response time to heat (50° C.), Mean ([7]; SC 3 mg/kg, Day 14, 1 h): 18.4* sec
response time to heat (50° C.), Mean ([7]; SC 3 mg/kg, Day 14, 2 h): 24.8* sec
response time to heat (50° C.), Mean ([7]; SC 3 mg/kg, Day 14, 4 h): 23.6* sec
response time to heat (50° C.), Mean ([7]; SC 3 mg/kg, Day 14, 6 h): 20.6* sec
response time to heat (50° C.), Mean ([7]; SC 3 mg/kg, Day 14 Pre-dosing): 19.7 s
response time to heat (50° C.), Mean ([7]; SC 3 mg/kg, Day 17, No dosing): 12.2 s
response time to heat (50° C.), Mean ([7]; SC 10 mg/kg, Day 0 Pre-Taxol): 28.5 s
response time to heat (50° C.), Mean ([7]; SC 10 mg/kg, Day 8, 1 h): 15.7 s
response time to heat (50° C.), Mean ([7]; SC 10 mg/kg, Day 8, 2 h): 17.8* sec
response time to heat (50° C.), Mean ([7]; SC 10 mg/kg, Day 8, 4 h): 15.8 s
response time to heat (50° C.), Mean ([7]; SC 10 mg/kg, Day 8, 6 h): 14.3 s
response time to heat (50° C.), Mean ([7]; SC 10 mg/kg, Day 8 Pre-dosing): 11.2 s
response time to heat (50° C.), Mean ([7]; SC 10 mg/kg, Day 14, 1 h): 18.5* sec
response time to heat (50° C.), Mean ([7]; SC 10 mg/kg, Day 14, 2 h): 18.7* sec
response time to heat (50° C.), Mean ([7]; SC 10 mg/kg, Day 14, 4 h): 19.3* sec
response time to heat (50° C.), Mean ([7]; SC 10 mg/kg, Day 14, 6 h): 15.5* sec
response time to heat (50° C.), Mean ([7]; SC 10 mg/kg, Day 14 Pre-dosing): 14.5 s
response time to heat (50° C.), Mean ([7]; SC 10 mg/kg, Day 17, No dosing): 10.4 s
response time to heat (hotplate 50° C.) ([7]; Taxol mice, SC, 10 mg/kg, 3 mg/kg and 1 mg/kg): active in increasing the response time
analgesic activity (withdrawal force, von Frey) ([7]; Taxol mice, SC, dose as low as 1 mg/kg): profound analgesic activity
Dose of maximum activity ([7]; Taxol model, SC, mice): 1 mg/kg
Duration of activity at maximum effect ([7]; Taxol model, SC, mice): 3 days
Level of activity (% of maximum effect-baseline) ([7]; Taxol model, SC, mice): 100%
